Laboratory results published in paper PMC4021201, “Repositioning: the fast track to new anti-malarial medicines?” (Malaria Journal, 2014).
Blank lines part the entries; values can stand above or below the compound they belong to. Starred links: 1 amine or outer side, 2 acyl side, 3 side chain; linkers in the order of their positions; H or OH if unused. Positions of bridges follow the written chain, without caps; N, C: chain ends. Non-standard residues stand in square brackets, D forms with d. Residues, ends and D or L forms follow the SMILES beside them. Chains are numbered I, II in the order given. Actinocin(9to1) = Cc1c2oc3c(C)ccc(C(=O)[*:1])c3nc-2c(C(=O)[*:2])c(N)c1=O; NMeV = CN[C@H](C(=O)O)C(C)C; Sar = CNCC(=O)O

How the values were obtained:
P. falciparum K1 [1] = experiment: SYBR I dye DNA staining assay (Pfizer), P. falciparum K1
Procedure: (§1) Cultures of P. falciparum 3D7 and K1 (both from David Baker, LSHTM) were maintained in O+ human erythrocytes (Research Red Cells and Blood Transfusion Service). 384-well assay plates contained 250 nL of compound at a serial dilution of 1:3 in 100% DMSO, starting from 200 µM (in the plate i.e. 20 µM final) and minimum and maximum controls. After addition of 50 μL of infected erythrocytes per well, plates were incubated at 37°C for three days in 5% CO2, 5% O2 and 90% N2. […] Percent anti-malarial activity was calculated relative to the minimum and maximum controls for each of the 11 drug concentrations and EC50 values determined from the resulting data plot.

P. falciparum 3D7 [2] = experiment: SYBR I dye DNA staining assay (Pfizer), P. falciparum 3D7
Procedure: as §1

P. falciparum K1 [3] = experiment: SYBR I dye DNA staining assay (SJCRH), P. falciparum K1; conditions: read-out: EC50 K1
Procedure: (§2) SJCRH used the SYBR® I dye DNA staining assay, which measures proliferation of P. falciparum in human erythrocytes [27]. Plasmodium falciparum strains 3D7 (chloroquine-sensitive) and K1 (chloroquine-resistant) (American Type Culture Collection [ATCC], Manassas, VA, USA) were maintained using established methods [28]. The assay method is as previously described [29]. […] EC50 values were calculated with the robust investigation of screening experiments (RISE) algorithm with a four-parameter logistic equation.
(§3) This group used the SYBR® I dye DNA staining assay, which measures proliferation of P. falciparum in human erythrocytes [1]. Plasmodium falciparum strains 3D7 (chloroquine-sensitive) and K1 (chloroquine-resistant) (American Type Culture Collection [ATCC], Manassas, VA) were maintained in group O? erythrocytes (Key Biologics, LLC, Memphis, TN) using established methods [2]. Serial dilutions of the test compound in DMSO were prepared to provide 10 concentrations for each compound. […] After addition of 10 µL mixed DNA dye solution in PBS per test well (10× SYBR® I, [Invitrogen, Carlsbad, CA]), 0.5% [vol/vol] Triton X-100, 0.5 mg/mL saponin), plates were shaken for 1 min at 750 rpm and incubated in the dark for 90 min. Fluorescence was measured with an EnVision®spectrophotometer (PerkinElmer, Waltham, MA) [3]. […] EC50 values were calculated with the robust investigation of screening experiments (RISE) algorithm with a four-parameter logistic equation.

P. falciparum 3D7 [4] = experiment: SYBR I dye DNA staining assay (SJCRH), P. falciparum 3D7; conditions: read-out: EC50 3D7
Procedure: as §2, §3

[5] = set-up: method as in unpublished data provided by Pfizer Inc; conditions: ref unpublished data provided by Pfizer Inc; cited from earlier work
[6] = Pharmacokinetics in P. falciparum-infected humanized mice; conditions: for Cmax / Tmax: NOD-scid IL-2Rγ^null, mouse, sc; for Cmax / Tmax / AUC (0–t): whole blood; for DNAUC(0–t): dose-normalized AUC(0–t); for DNAUC(0–t) / AUC (0–t): mean (SD)
Procedure: The pharmacokinetics of compounds after oral administration was determined concurrently in the same mice used for the therapeutic efficacy assay. Samples were taken at 0.25, 0.5, 1, 3, 6, 8, and 24 hours after the first dose. Compound levels were measured in 25 μL blood samples that were mixed with 25 μL of saponin (0.1% in water) and processed under standard liquid–liquid extraction conditions [39]. Pharmacokinetic parameters were calculated using WinNonlin 5.2 non-compartmental analysis.

[7] = test system: P. falciparum Pf3D7^0087/N9; experiment: Plasmodium falciparum huSCID humanized mouse model, four-day test; conditions: 10, 30 mg/kg sc target doses, up to maximum tolerated dose
Procedure: In vivo testing using this model was performed by GSK at Tres Cantos, against P. falciparum 3D7 (in vivo strain Pf3D7^0087/N9generated by GSK using Pf3D7 obtained from Eduardo Dei-Cas, Institute Pasteur, Lille, France [36]) growing in peripheral blood of female NOD-scid IL-2Rγ^null mice engrafted with human erythrocytes, i e, a ‘humanized’ mouse model, following published protocols [36, 37]. Briefly, animals were infected intravenously with 20×10^6 infected erythrocytes on day 0. […] Dosing was initiated at the maximum tolerated dose in mice on day 3 after infection and continued once daily for four days. Each experimental group was n = 3 mice unless otherwise stated. Control animals received vehicle only and a quality control assay used chloroquine at target doses of 3 mg/kg and 7 mg/kg. Venous blood samples for parasitology (2 μL) were taken at days 3, 5, and 7 after infection. Anti-malarial efficacy was assessed using a standard four-day test (i e, at day 7) and blood parasitaemia was measured by fluorescence-activated cell sorting (FACS) analysis [38]. The limit of detection (per cent of P. falciparum) was 0.01%. The number of parasites ×10^6 cells was recorded and data were analysed by non-linear fitting to a logistic equation of log10 (per cent parasitaemia at day 7 after infection) versus the dose level administered.
Per cent parasitaemia at day 7 after infection in treated versus control animals was analysed using a one factor ANOVA with Tukey’s post-test analysis. […] ED90 was calculated similarly. Analysis was performed using WinNonlin 5.2 and GraphPad Prism 5.0.

[8] = Plasmodium falciparum, K1, 72 h
[9] = Plasmodium falciparum, 3D7, 72 h
[10] = target dose 10 mg/kg subcutaneous (experimental 6.4 CEP-701, 8.3 CEP-1347)
[11] = target dose 30 mg/kg subcutaneous (experimental 15.0 CEP-701, 22.0 CEP-1347)
[12] = mean (95% CI), SYBR I fluorescence assay, chloroquine-resistant strain, 72 h
[13] = mean (95% CI), SYBR I fluorescence assay, chloroquine-sensitive strain, 72 h

- EC50 (P. falciparum K1 [1]; read-out: EC50 K1, mean (95% CI), Pfizer SYBR I fluorescence assay): 400 nM
- EC50 (P. falciparum 3D7 [2]; read-out: EC50 3D7, mean (95% CI), Pfizer SYBR I fluorescence assay): 700 nM
Structure (SMILES): CCNCc1cncc(-c2ccc3[nH]nc(-c4nc5c(F)cc(F)cc5[nH]4)c3c2)c1C [AG-024322]

Structure (SMILES): Nc1nc(N)c2nc(CNc3ccc(C(=O)N[C@@H](CCC(=O)O)C(=O)O)cc3)cnc2n1 [Aminopterin]
- EC50 (P. falciparum K1 [3]; [8]): 1250 nM
- EC50 (P. falciparum 3D7 [4]; [9]): 320 nM

- EC50 (P. falciparum K1 [3]; [8]): 80 nM
- EC50 (P. falciparum 3D7 [4]; [9]): 20 nM
Structure (SMILES): CC(C)C[C@H](NC(=O)[C@H](Cc1ccccc1)NC(=O)c1cnccn1)B(O)O [Bortezomib]

- EC50 (P. falciparum K1 [3]; [8]): 650 nM
- EC50 (P. falciparum 3D7 [4]; [9]): 220 nM
Structure (SMILES): COc1cc(Nc2c(C#N)cnc3cc(OCCCN4CCN(C)CC4)c(OC)cc23)c(Cl)cc1Cl [Bosutinib]

- EC50 (P. falciparum K1 [1]; Plasmodium falciparum, K1, read-out: EC50 K1): 800 nM
- EC50 (P. falciparum 3D7 [2]; Plasmodium falciparum, 3D7, read-out: EC50 3D7): 1100 nM
Structure (SMILES): COc1ccc(C(=O)c2cn(C(C)C)c3ncnc(N)c23)cc1NC(=O)Nc1ccc(Cl)cc1Cl [CE-245677]
- human plasma level with significant central nervous system adverse events [5]: ~ 1.5 μM

Structure (SMILES): CCSCc1ccc2c(c1)c1c3c(c4c5cc(CSCC)ccc5n5c4c1n2[C@H]1C[C@](O)(C(=O)OC)[C@]5(C)O1)CNC3=O [CEP-1347]
- Cmax ([6]; 10 mg/kg): 830 ng/mL
- Tmax ([6]; 10 mg/kg): 4.8 h
- Cmax ([6]; 30 mg/kg): 730 ng/mL
- Tmax ([6]; 30 mg/kg): 6 h
- DNAUC(0–t) [6, 10]: 0.98 (0.22) μg · h · mL^−1 · day^−1
- DNAUC(0–t) [6, 11]: 0.45 (0.092) μg · h · mL^−1 · day^−1
- AUC (0–t) [6, 10]: 8.1 (1.8) μg · h · mL
- AUC (0–t) [6, 11]: 9.9 (2.1) μg · h · mL
- reduction of parasitaemia versus vehicle [7]: did not reach statistical significance

Structure (SMILES): CC(=O)[C@@]1(O)CC[C@H]2[C@@H]3C=C(Cl)C4=CC(=O)[C@@H]5C[C@@H]5[C@]4(C)[C@H]3CC[C@@]21C [Cyproterone]
- EC50 (P. falciparum K1 [3]; [12]): 890 nM
- EC50 (P. falciparum 3D7 [4]; [13]): 560 nM

Structure (SMILES): Cc1c2oc3c(C)ccc(C(=O)N[C@@H]4C(=O)N[C@H](C(C)C)C(=O)N5CCC[C@H]5C(=O)N(C)CC(=O)N(C)[C@@H](C(C)C)C(=O)O[C@@H]4C)c3nc-2c(C(=O)N[C@@H]2C(=O)N[C@H](C(C)C)C(=O)N3CCC[C@H]3C(=O)N(C)CC(=O)N(C)[C@@H](C(C)C)C(=O)O[C@@H]2C)c(N)c1=O [Dactinomycin] (I: T[dV]P[Sar][NMeV] / II: T[dV]P[Sar][NMeV]; ester I:1-I:C, II:1-II:C; linker I:N-II:N via Actinocin(9to1))
- EC50 (P. falciparum K1 [3]; [8]): 1 nM
- EC50 (P. falciparum 3D7 [4]; [9]): 0.9 nM

Structure (SMILES): CN(CCCCCCCCCCN(C)C(=O)Oc1cccc([N+](C)(C)C)c1)C(=O)Oc1cccc([N+](C)(C)C)c1 [Demecarium]
- EC50 (P. falciparum K1 [3]; [8]): 300 nM
- EC50 (P. falciparum 3D7 [4]; [9]): 510 nM

- EC50 (P. falciparum K1 [3]; [8]): 60 nM
- EC50 (P. falciparum 3D7 [4]; [9]): 60 nM
Structure (SMILES): Cc1cc(N)c2ccccc2[n+]1CCCCCCCCCC[n+]1c(C)cc(N)c2ccccc21 [Dequalinium]

- EC50 (P. falciparum K1 [3]; [12]): 500 nM
- EC50 (P. falciparum 3D7 [4]; [13]): 840 nM
Structure (SMILES): Cc1c(N(C)CS(=O)(=O)O)c(=O)n(-c2ccccc2)n1C [Dipyrone]

- EC50 (P. falciparum K1 [3]; [8]): 200 nM
- EC50 (P. falciparum 3D7 [4]; [9]): 210 nM
Structure (SMILES): COc1cccc2c1C(=O)c1c(O)c3c(c(O)c1C2=O)C[C@@](O)(C(=O)CO)C[C@@H]3O[C@H]1C[C@H](N)[C@H](O)[C@H](C)O1 [Doxorubicin]

- EC50 (P. falciparum K1 [3]; [8]): > 7370 nM
- EC50 (P. falciparum 3D7 [4]; [9]): 560 nM
Structure (SMILES): CS(=O)(=O)CCNCc1ccc(-c2ccc3ncnc(Nc4ccc(OCc5cccc(F)c5)c(Cl)c4)c3c2)o1 [Lapatinib]

Structure (SMILES): C[C@]12O[C@H](C[C@]1(O)CO)n1c3ccccc3c3c4c(c5c6ccccc6n2c5c31)CNC4=O [Lestaurtinib]
- Cmax ([6]; 10 mg/kg): 630 ng/mL
- Tmax ([6]; 10 mg/kg): 0.78 h
- Cmax ([6]; 30 mg/kg): 2800 ng/mL
- Tmax ([6]; 30 mg/kg): 4 h
- DNAUC(0–t) [6, 10]: 0.44 (0.072) μg · h · mL^−1 · day^−1
- DNAUC(0–t) [6, 11]: 1.6 (0.47) μg · h · mL^−1 · day^−1
- AUC (0–t) [6, 10]: 2.8 (0.46) μg · h · mL
- AUC (0–t) [6, 11]: 23.8 (6.8) μg · h · mL
- reduction of parasitaemia versus vehicle [7]: did not reach statistical significance
- EC50 (P. falciparum K1 [3]; [8]): 340 nM
- EC50 (P. falciparum 3D7 [4]; [9]): 490 nM
